# From PMC10409285 (PLOS Pathogens, 2023)
# Values joined by “and” are separate entries in the source; they are usually repeats but may differ in a detail not shown here. Identical values can stand only once. Like-named read-outs stand apart in the source and are kept apart here. No end group written: not given here.
# Tests used:
# DR2b (DRB1*15:01) = biological target: T1, DR2b (DRB1*15:01) (Homo sapiens, UniProt P01903+P01911); assay: fluorescence polarization competition binding assay, DR2b; details: mean of two independent experiments
# T1 construct: Soluble DRB1*15:01 and DRB5*01:01 with a covalently linked CLIP peptides; covalently linked CLIP peptide (3C-protease-cleavable linker) (cleaved yes); purchased NIH Tetramer Core Facility / Emory University (a gift of Drs. John Altman and Richard Willis, not bought)
# DR2a (DRB5*01:01) = DR2a (DRB5*01:01) (Homo sapiens, UniProt P01903+Q30154); assay: fluorescence polarization competition binding assay, DR2a
# [1] = biological target: Soluble DP4 (HLA-DPA1*01:03/DPB1*04:01) (human)
# [2] = biological target: Soluble DP4 (HLA-DPA1*01:03/DPB1*04:01) (human); assay: fluorescence polarisation
# [3] = biological target: Soluble DRB1*15:01 (human) (UniProt P01903); assay: fluorescence polarisation
# [4] = biological target: Soluble DRB1*15:01 (human) (UniProt P01903)
# A549 cells = details: cells treated with IFN-γ and trametinib (IFN-γ 100 ng/mL; trametinib 50 ng/mL, 50 nM)
# [5] = biological target: Soluble DRB5*01:01 (human) (UniProt P01903); assay: fluorescence polarisation
# [6] = fluorescence polarization competition, […], mean of two independent experiments, read-out: Mean IC50, DR2a (DRB5*01:01)
compound,measurement,setting,value
CC[C@H](C)[C@H](NC(=O)CNC(=O)[C@H](CC(N)=O)NC(=O)[C@@H](NC(=O)[C@H](Cc1ccccc1)NC(=O)[C@@H](N)CC(=O)O)[C@@H](C)CC)C(=O)N[C@@H](Cc1ccccc1)C(=O)N[C@@H](C)C(=O)N[C@@H](CCCCN)C(=O)N[C@H](C(=O)N[C@@H](CCCCN)C(=O)N[C@@H](CC(N)=O)C(=O)N[C@H](C(=O)N[C@@H](CCCCN)C(=O)N[C@H](C(=O)N[C@H](C(=O)N[C@@H](CCCCN)C(=O)O)[C@@H](C)CC)C(C)C)[C@@H](C)O)C(C)C [Peptide P12],IC50,DR2b (DRB1*15:01),17100 nM
same,IC50,DR2a (DRB5*01:01),< 1000 nM and 140 nM
"P7, OC43 spike 1147–1164 (peptide)",IC50,[1],< 10000 nM
"P1, OC43 hemagglutinin esterase 259–273 (peptide)",IC50,[2],< 1000 nM
"P8, OC43 hemagglutinin esterase 93–107 (peptide)",IC50,[3],< 1000 nM
CC[C@H](C)[C@H](NC(=O)[C@H](CC(C)C)NC(=O)[C@H](CCC(N)=O)NC(=O)[C@H](CCC(N)=O)NC(=O)[C@@H](NC(=O)[C@@H](NC(=O)[C@H](Cc1ccc(O)cc1)NC(=O)[C@@H](NC(=O)[C@H](CCC(N)=O)NC(=O)[C@H](CC(C)C)NC(=O)[C@H](CO)NC(=O)[C@H](CCC(N)=O)NC(=O)[C@@H](N)CC(C)C)[C@@H](C)O)C(C)C)[C@@H](C)O)C(=O)N[C@@H](CCCNC(=N)N)C(=O)N[C@@H](C)C(=O)O [Peptide P11.CoV2],IC50,DR2b (DRB1*15:01),450 nM
same,IC50,DR2a (DRB5*01:01); [6],2180 nM
QGLPNNTASWFTALTQH [N#7 (CoV2)],IC50,DR2b (DRB1*15:01),507000 nM
same,IC50,DR2a (DRB5*01:01); [6],204000 nM
CC(C)C[C@H](NC(=O)[C@H](C)NC(=O)[C@H](C)NC(=O)[C@@H](N)CC(C)C)C(=O)N[C@@H](CC(N)=O)C(=O)N[C@@H](C)C(=O)N[C@@H](Cc1ccccc1)C(=O)N[C@H](C(=O)N[C@@H](CO)C(=O)N[C@@H](CCC(N)=O)C(=O)N[C@H](C(=O)N[C@@H](CC(C)C)C(=O)N[C@@H](CC(N)=O)C(=O)N[C@@H](CCCCN)C(=O)N[C@@H](Cc1ccc(O)cc1)C(=O)O)C(C)C)C(C)C [Peptide P11.NL63],IC50,DR2b (DRB1*15:01),560 nM
same,IC50,DR2a (DRB5*01:01),2100 nM
"P10, OC43 nucleoprotein 54–68 (peptide)",IC50,[4],< 1000 nM
"P2, OC43 nucleoprotein 321–336 (peptide)",IC50,[1],> 10000 nM
CC(=O)Nc1cccc(-n2c(=O)n(C3CC3)c(=O)c3c(Nc4ccc(I)cc4F)n(C)c(=O)c(C)c32)c1 [trametinib],MHC-II expression in A549 cells,A549 cells,small increase
"P9, OC43 hemagglutinin esterase 128–142 (peptide)",IC50,[3],< 1000 nM
same,IC50,[5],< 1000 nM
"P6, OC43 spike 1140–1155 (peptide)",IC50,[1],> 10000 nM
"P3, OC43 spike 97–111 (peptide)",IC50,[1],< 10000 nM
"P5, OC43 spike 760–773 (peptide)",IC50,[1],< 1000 nM
EGQQIIFYEGVNFTP [Peptide P8],IC50,DR2b (DRB1*15:01),230 nM
same,IC50,DR2a (DRB5*01:01),5680 nM
LFYTQVYKNMAVYRS [Peptide P9],IC50,DR2b (DRB1*15:01),220 nM
same,IC50,DR2a (DRB5*01:01),< 1000 nM and 400 nM
CC[C@H](C)[C@H](NC(=O)[C@@H](NC(=O)[C@H](CC(N)=O)NC(=O)[C@H](CO)NC(=O)[C@H](CCCCN)NC(=O)[C@H](CCC(=O)O)NC(=O)[C@@H](NC(=O)[C@H](CO)NC(=O)[C@H](C)NC(=O)[C@H](Cc1ccccc1)NC(=O)[C@H](Cc1ccc(O)cc1)NC(=O)[C@@H](NC(=O)CNC(=O)[C@H](CC(=O)O)NC(=O)[C@H](CC(N)=O)NC(=O)[C@@H](N)Cc1ccccc1)C(C)C)[C@@H](C)O)[C@@H](C)CC)C(=O)O [S#18 (CoV2)],IC50,DR2b (DRB1*15:01),777000 nM
same,IC50,DR2a (DRB5*01:01); [6],41300 nM
"P4, OC43 spike 903–917 (peptide)",IC50,[1],< 10000 nM
"P14, OC43 envelope 62–78 (peptide)",IC50,[1],< 10000 nM
CC[C@H](C)[C@H](NC(=O)[C@H](CC(=O)O)NC(=O)[C@H](CO)NC(=O)[C@H](CC(C)C)NC(=O)[C@H](CCC(N)=O)NC(=O)[C@H](CCC(N)=O)NC(=O)[C@H](CO)NC(=O)[C@@H](NC(=O)[C@H](Cc1ccc(O)cc1)NC(=O)[C@H](C)NC(=O)[C@H](CC(N)=O)NC(=O)[C@H](CC(C)C)NC(=O)[C@H](C)NC(=O)[C@@H](NC(=O)[C@@H](N)CC(C)C)[C@@H](C)O)C(C)C)C(=O)O [Peptide P11.HKU1],IC50,DR2b (DRB1*15:01),220 nM
same,IC50,DR2a (DRB5*01:01),21300 nM
CC(C)C[C@H](NC(=O)[C@H](C)NC(=O)[C@@H](NC(=O)[C@@H](N)CC(C)C)[C@@H](C)O)C(=O)N[C@@H](CC(N)=O)C(=O)N[C@@H](C)C(=O)N[C@@H](Cc1ccc(O)cc1)C(=O)N[C@H](C(=O)N[C@@H](CO)C(=O)N[C@@H](CCC(N)=O)C(=O)N[C@@H](CCC(N)=O)C(=O)N[C@@H](CC(C)C)C(=O)N[C@@H](CO)C(=O)N[C@@H](CC(=O)O)C(=O)N[C@@H](CO)C(=O)O)C(C)C [Peptide P11],IC50,DR2b (DRB1*15:01),140 nM
same,IC50,DR2a (DRB5*01:01),63500 nM
"P11, OC43 spike 1085–1099 (peptide)",IC50,[4],< 1000 nM
CC(C)C[C@H](NC(=O)[C@H](C)NC(=O)[C@H](C)NC(=O)[C@@H](N)CC(C)C)C(=O)N[C@@H](CC(N)=O)C(=O)N[C@H](C(=O)N[C@@H](Cc1ccccc1)C(=O)N[C@H](C(=O)N[C@@H](CO)C(=O)N[C@@H](Cc1c[nH]cn1)C(=O)N[C@H](C(=O)N[C@@H](CC(C)C)C(=O)N[C@H](C(=O)N[C@@H](CCCCN)C(=O)N[C@@H](Cc1ccc(O)cc1)C(=O)O)[C@@H](C)O)[C@@H](C)O)C(C)C)C(C)C [Peptide P11.229E],IC50,DR2b (DRB1*15:01),210 nM
same,IC50,DR2a (DRB5*01:01),2100 nM
CC[C@H](C)[C@H](NC(=O)[C@@H](NC(=O)CNC(=O)[C@H](CC(N)=O)NC(=O)[C@H](CCC(=O)O)NC(=O)[C@H](CC(N)=O)NC(=O)[C@H](Cc1ccc(O)cc1)NC(=O)[C@H](CCCCN)NC(=O)[C@H](CC(C)C)NC(=O)[C@H](CC(C)C)NC(=O)[C@H](Cc1ccccc1)NC(=O)[C@@H](NC(=O)[C@H](CCCNC(=N)N)NC(=O)[C@@H]1CCCN1C(=O)[C@@H](N)CCC(N)=O)[C@@H](C)O)[C@@H](C)O)C(=O)N[C@H](C(=O)O)[C@@H](C)O [S#55 (CoV2)],IC50,DR2b (DRB1*15:01),3700 nM
same,IC50,DR2a (DRB5*01:01); [6],66200 nM
CC[C@H](C)[C@H](NC(=O)[C@@H](NC(=O)CNC(=O)[C@H](CC(N)=O)NC(=O)[C@H](CCC(=O)O)NC(=O)[C@H](CC(N)=O)NC(=O)[C@H](Cc1ccc(O)cc1)NC(=O)[C@H](CCCCN)NC(=O)[C@H](CC(C)C)NC(=O)[C@@H](N)CC(C)C)[C@@H](C)O)C(=O)N[C@H](C(=O)N[C@@H](CC(=O)O)C(=O)N[C@@H](C)C(=O)N[C@H](C(=O)N[C@@H](CC(=O)O)C(=O)N[C@@H](CS)C(=O)O)C(C)C)[C@@H](C)O [S#56 (CoV2)],IC50,DR2b (DRB1*15:01),39800 nM
same,IC50,DR2a (DRB5*01:01); [6],41100 nM
"P12, OC43 spike 98–114 (peptide)",IC50,[5],< 1000 nM
same,IC50,[4],> 1000 nM
